# According to PMC6757289, “Design and Characterization of SGK3-PROTAC1, an Isoform Specific SGK3 Kinase PROTAC Degrader” (ACS Chemical Biology, 2019):
# pIC50: −log10 of the molar value. Where a SMILES comes first, the peptide text is derived from it. The star is where a group is joined. Cbz = O=C(OCc1ccccc1)*
# How the values were obtained:
# S6K1 = S6K1 (Homo sapiens, UniProt P23443, T412E); assay: IC50 determination, biochemical kinase assay; settings: not in the presence of VHL
# Method: (§1) IC50 determination was performed at the MRC PPU International Centre for Protein Kinase Profiling, according to the protocol previously described[47],[48]
# SGK3 [1] = target: T1, SGK3 (Homo sapiens, UniProt Q96BR1); assay: IC50 determination, biochemical kinase assay; settings: for pIC50: not in the presence of VHL
# T1 sequence (Q96BR1 1-496): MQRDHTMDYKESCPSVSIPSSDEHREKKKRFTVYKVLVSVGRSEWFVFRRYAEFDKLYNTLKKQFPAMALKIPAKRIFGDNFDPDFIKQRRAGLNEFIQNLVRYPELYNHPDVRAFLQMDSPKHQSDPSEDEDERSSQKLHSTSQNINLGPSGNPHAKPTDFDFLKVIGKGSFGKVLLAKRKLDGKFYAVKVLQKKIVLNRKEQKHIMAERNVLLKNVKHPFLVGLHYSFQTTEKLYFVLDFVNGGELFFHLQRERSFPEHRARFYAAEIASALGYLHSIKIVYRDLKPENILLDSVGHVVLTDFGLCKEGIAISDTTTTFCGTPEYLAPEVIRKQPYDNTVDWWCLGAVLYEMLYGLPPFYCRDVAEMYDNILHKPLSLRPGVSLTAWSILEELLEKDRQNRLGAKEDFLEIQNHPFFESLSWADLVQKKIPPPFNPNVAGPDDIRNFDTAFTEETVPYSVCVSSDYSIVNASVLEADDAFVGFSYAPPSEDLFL
# Method: as §1
# SGK1 = target: T2, SGK1 (Homo sapiens, UniProt O00141, S422D); assay: IC50 determination, biochemical kinase assay; settings: not in the presence of VHL
# T2 sequence (O00141 60-431 S422D limits assumed): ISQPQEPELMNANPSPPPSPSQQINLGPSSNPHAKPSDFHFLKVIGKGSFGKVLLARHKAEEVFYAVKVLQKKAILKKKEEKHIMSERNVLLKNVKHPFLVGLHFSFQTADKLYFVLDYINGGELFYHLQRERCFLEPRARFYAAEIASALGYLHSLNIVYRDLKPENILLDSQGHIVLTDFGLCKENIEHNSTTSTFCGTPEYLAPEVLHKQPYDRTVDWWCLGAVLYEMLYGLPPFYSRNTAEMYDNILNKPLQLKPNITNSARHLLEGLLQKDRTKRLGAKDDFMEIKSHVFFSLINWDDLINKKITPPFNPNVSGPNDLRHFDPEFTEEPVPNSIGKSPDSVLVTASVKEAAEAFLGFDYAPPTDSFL
# CAMA-1 cells = assay: Cell growth (confluency, Incucyte S3); type: cell-based; settings: CAMA-1, 1 μM
# Method: (§2) Figure 6 SGK3-PROTAC1-mediated degradation of SGK3 further inhibiting the growth of cancer cell lines treated with PI3K-Akt pathway inhibitors. CAMA-1 (A, C) and ZR-75-1 (B, D) were treated with compounds as indicated either as monotherapy or in combination, and confluency was measured on the Incucyte S3 every 4 h for up to 4 weeks.
# (§3) For growth assays, ZR-75-1 cells were seeded in 96-well plates at a density of 6000 cells/well and left to adhere overnight. Cells were then treated with compounds as described in the figure legends and imaged every 4 h on the Incucyte S3 (Essen Bioscience) for up to 4 weeks to give a measure of cell confluency. Media were refreshed every 4–5 days.
# (§4) Supplementary Figure S3. SGK3-PROTAC compounds have no effect on cell growth. CAMA-1 and ZR-75-1
# (§5) confluency was m easured every 4 h on Incucyte S3.
# (§6) (1 picture or pasted object on this page, not shown here)
# ZR-75-1 cells = assay: Cell growth (confluency, Incucyte S3); type: cell-based; settings: ZR-75-1, 1 μM
# Method: as §2, §3, §4, §5, §6
# SGK3 [2] = target: T1, SGK3; assay: SGK3 degradation in HEK293 cells, immunoblot; type: cell-based; set-up: reduced endogenous SGK isoform or S6K1 expression when administered to HEK293 cells for 48 h; endogenous in cells; host or cells: HEK293; settings: for effect on SGK3-PROTAC1-mediated degradation of SGK3: HEK293, pretreatment, 6 h 0.3 µM SGK3-PROTAC1; for effect on DAT1-induced degradation of SGK3: HEK293, MLN4924 3 μM, MG132 50 μM
# Method: Figure 1 Design and cellular activity of first generation SGK3 PROTACs. (A) Structure of compound 14H, previously published by Sanofi as an inhibitor of SGK3. (B) Starting material for SGK PROTACs. […] (C) Structures of first generation SGK PROTACs. SGK and E3 ligase targeting motifs were joined by a 3xPEG linker to produce the PROTACs. (D) HEK293 cells were treated for 48 h with increasing concentrations of each PROTAC compound from 0.1 nM to 10 μM. Cell lysates were subjected to immunoblot analysis with the indicated antibodies, and SGK3 protein levels were quantified in Image Studio Lite software (Licor).
# Figure 2 Design and cellular evaluation of second and third generation SGK PROTACs. (A) Chemical structure of compounds DAT5–12, expanding upon DAT1. (B) Chemical structure of cisSGK3-PROTAC1. (C) HEK293 cells were treated for 48 h with increasing concentrations of each PROTAC compound from 1 nM to 10 μM. Cell lysates were subjected to immunoblot analysis with the indicated antibodies, and SGK3 protein levels quantified in Image Studio Lite software. (D) HEK293 cells were treated for 48 h with increasing concentrations of each PROTAC compound from 1 nM to 10 μM. Cell lysates were subjected to immunoblot analysis with the indicated antibodies, and SGK3 and S6K1 protein levels were quantified in Image Studio Lite software. TEXT PRINTED IN THE PICTURE: (C) DAT1: % SGK3: 100 (48h Treatment (μM): 0); % SGK3: 94 (48h Treatment (μM): 0.001); % SGK3: 82 (48h Treatment (μM): 0.01); % SGK3: 70 (48h Treatment (μM): 0.1); % SGK3: 52 (48h Treatment (μM): 1); % SGK3: 31 (48h Treatment (μM): 10) | (C) DAT5: % SGK3: 100 (48h Treatment (μM): 0); % SGK3: 104 (48h Treatment (μM): 0.001); % SGK3: 82 (48h Treatment (μM): 0.01); % SGK3: 92 (48h Treatment (μM): 0.1); % SGK3: 73 (48h Treatment (μM): 1); % SGK3: 36 (48h Treatment (μM): 10) | (C) DAT6: % SGK3: 100 (48h Treatment (μM): 0); % SGK3: 105 (48h Treatment (μM): 0.001); % SGK3: 90 (48h Treatment (μM): 0.01); % SGK3: 71 (48h Treatment (μM): 0.1); % SGK3: 44 (48h Treatment (μM): 1); % SGK3: 20 (48h Treatment (μM): 10) | (C) DAT7: % SGK3: 100 (48h Treatment (μM): 0); % SGK3: 77 (48h Treatment (μM): 0.001); % SGK3: 80 (48h Treatment (μM): 0.01); % SGK3: 95 (48h Treatment (μM): 0.1); % SGK3: 37 (48h Treatment (μM): 1); % SGK3: 29 (48h Treatment (μM): 10) | (D) DAT8: % SGK3: 100 (48h Treatment (μM): 0); % SGK3: 97 (48h Treatment (μM): 0.001); % SGK3: 107 (48h Treatment (μM): 0.01); % SGK3: 34 (48h Treatment (μM): 0.1); % SGK3: 24 (48h Treatment (μM): 1); % SGK3: 19 (48h Treatment (μM): 10) | (D) DAT9: % SGK3: 100 (48h Treatment (μM): 0); % SGK3: 105 (48h Treatment (μM): 0.001); % SGK3: 71 (48h Treatment (μM): 0.01); % SGK3: 40 (48h Treatment (μM): 0.1); % SGK3: 11 (48h Treatment (μM): 1); % SGK3: 12 (48h Treatment (μM): 10) | (D) DAT10: % SGK3: 100 (48h Treatment (μM): 0); % SGK3: 100 (48h Treatment (μM): 0.001); % SGK3: 76 (48h Treatment (μM): 0.01); % SGK3: 54 (48h Treatment (μM): 0.1); % SGK3: 11 (48h Treatment (μM): 1); % SGK3: 9 (48h Treatment (μM): 10) | (D) DAT11: % SGK3: 100 (48h Treatment (μM): 0); % SGK3: 96 (48h Treatment (μM): 0.001); % SGK3: 97 (48h Treatment (μM): 0.01); % SGK3: 41 (48h Treatment (μM): 0.1); % SGK3: 32 (48h Treatment (μM): 1); % SGK3: 29 (48h Treatment (μM): 10) | (D) DAT12: % SGK3: 100 (48h Treatment (μM): 0); % SGK3: 106 (48h Treatment (μM): 0.001); % SGK3: 84 (48h Treatment (μM): 0.01); % SGK3: 79 (48h Treatment (μM): 0.1); % SGK3: 32 (48h Treatment (μM): 1); % SGK3: 29 (48h Treatment (μM): 10) DOUBTS OF THE COPYIST ABOUT THIS PICTURE: All % SGK3 values are quantification numbers printed under immunoblot lanes; each was assigned to a concentration by lane position / DAT9 and DAT10, % SGK3: the first numbers are printed run together ('100105', '100100') and were split as 100 | 105 and 100 | 100
# Figure 3 Characterization of cellular activities of SGK3-PROTAC1 and cisSGK3-PROTAC1. […]
# Sequence of S6K1 (P23443 1-421 T412E limits assumed): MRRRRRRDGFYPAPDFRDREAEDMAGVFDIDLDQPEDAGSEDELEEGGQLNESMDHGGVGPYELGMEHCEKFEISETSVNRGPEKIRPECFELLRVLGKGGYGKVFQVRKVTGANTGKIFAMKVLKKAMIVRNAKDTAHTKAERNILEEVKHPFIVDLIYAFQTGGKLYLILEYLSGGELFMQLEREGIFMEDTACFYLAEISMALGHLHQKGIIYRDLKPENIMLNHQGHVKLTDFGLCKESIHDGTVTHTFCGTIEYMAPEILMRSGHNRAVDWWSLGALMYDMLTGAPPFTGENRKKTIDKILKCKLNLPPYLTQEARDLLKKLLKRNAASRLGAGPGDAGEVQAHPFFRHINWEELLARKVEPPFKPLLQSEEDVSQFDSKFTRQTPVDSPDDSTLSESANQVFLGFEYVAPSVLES
smiles,measurement,setting,value
COc1ccc(Cl)c(S(=O)(=O)Nc2ccc(-c3nc(OC[C@H]4CN(CCOCCOCCOCC(=O)N[C@H](C(=O)N5C[C@H](O)C[C@H]5C(=O)NCc5ccc(-c6scnc6C)cc5)C(C)(C)C)CCO4)c4c(C)n[nH]c4n3)cc2)c1 [DAT2],pIC50,S6K1,6.74
same,fold more potent inhibition of SGK1 and SGK3 than DAT1,SGK3 [1]; SGK1 and SGK3,2–4 fold
same,pIC50,SGK3 [1],6.72
same,pIC50,SGK1,6.40
"NC1(C(=O)N[C@@H](CCO)c2ccc(Cl)cc2)CCN(c2ncnc3[nH]ccc23)CC1 [AZD5363, reference compound]","growth, PI3K or Akt inhibitor monotherapy",CAMA-1 cells,substantially reduced growth
same,"growth, PI3K or Akt inhibitor monotherapy",ZR-75-1 cells,substantially reduced growth
Cc1ccc(F)c(S(=O)(=O)Nc2ccc(-c3nc(OC[C@H]4CN(CCCCCCOCCOCCOCCOCC(=O)N[C@H](C(=O)N5C[C@H](O)C[C@H]5C(=O)NCc5ccc(-c6scnc6C)cc5)C(C)(C)C)CCO4)c4cn[nH]c4n3)cc2)c1 [DAT9],pIC50,S6K1,5.34
same,pIC50,SGK3 [1],5.75
same,pIC50,SGK1,5.05
same,remaining activity at 0.001 µM,"SGK3 [2]; HEK293, 48 h, 0.001 μM, Figure 2",105%
same,remaining activity at 0.01 µM,"SGK3 [2]; HEK293, 48 h, 0.01 μM, Figure 2",71%
same,remaining activity at 0.1 µM,"SGK3 [2]; HEK293, 48 h, 0.1 μM, Figure 2",40%
same,remaining activity at 1 µM,"SGK3 [2]; HEK293, 48 h, 1 μM, Figure 2",11%
same,remaining activity at 10 µM,"SGK3 [2]; HEK293, 48 h, 10 μM, Figure 2",12%
"CC(C)C[C@@H](C=O)NC(=O)[C@H](CC(C)C)NC(=O)[C@H](CC(C)C)NC(=O)OCc1ccccc1 [MG132, reference compound] (Cbz-Leu-Leu-Leu-aldehyde)",effect on SGK3-PROTAC1-mediated degradation of SGK3,SGK3 [2],prevented
same,effect on DAT1-induced degradation of SGK3,SGK3 [2],blocked
COc1ccc(Cl)c(S(=O)(=O)Nc2ccc(-c3nc(OC[C@H]4CN(CCOCCOCCOCC(=O)NCCNc5cccc6c5C(=O)N(C5CCC(=O)NC5=O)C6=O)CCO4)c4c(C)n[nH]c4n3)cc2)c1 (some centres unmarked) [DAT4],pIC50,S6K1,6.72
same,pIC50,SGK3 [1],6.27
same,pIC50,SGK1,6.22
"CS(=O)(=O)N1CCN(Cc2cc3nc(-c4cccc5[nH]ncc45)nc(N4CCOCC4)c3s2)CC1 [GDC0941, 2-(1H-Indazol-4-Yl)-6-(4-Methanesulfonyl-Piperazin-1-Ylmethyl)-4-Morpholin-4-Yl-t Hieno[3,2-d]Pyrimidine, reference compound]","growth, PI3K or Akt inhibitor monotherapy",CAMA-1 cells,substantially reduced growth
same,"growth, PI3K or Akt inhibitor monotherapy",ZR-75-1 cells,substantially reduced growth
Cc1ccc(F)c(S(=O)(=O)Nc2ccc(-c3nc(OC[C@H]4CN(CCOCCOCCOCC(=O)NCCNc5cccc6c5C(=O)N(C5CCC(=O)NC5=O)C6=O)CCO4)c4cn[nH]c4n3)cc2)c1 (some centres unmarked) [DAT3],pIC50,S6K1,6.62
same,pIC50,SGK3 [1],6.19
same,pIC50,SGK1,6.00
"NS(=O)(=O)OC[C@@H]1C[C@@H](n2ccc3c(N[C@H]4CCc5ccccc54)ncnc32)C[C@@H]1O [MLN4924, reference compound]",effect on SGK3-PROTAC1-mediated degradation of SGK3,SGK3 [2],prevented
same,effect on DAT1-induced degradation of SGK3,SGK3 [2],blocked
